How the values were obtained:
[1] = tested on: mice (renal fibrosis model); assay: Model making of renal fibrosis of mice with cisplatin (CDDP), survival and weight; type: in vivo
Method: The number of mice in each group was 12, 12 and 12. They were given intraperitoneal injections for 200 μl/per time/per mouse for 5 consecutive days, and the injectionvolumes contained the appropriate doses of cisplatin (CDDP). On the 1st, the 3rd, the 5th, the 7th, the 14th and the 28th days the mice were weighed and the statistics for the survival rates in each group were recorded.

[2] = tested on: lung tissue of mice (pulmonary fibrosis model); assay: Model building of pulmonary fibrosis by BLM atomization, Szapiel grading of lung sections; type: in vivo; settings: for number of mice with Szapiel grade 0 (no alveolitis or fibrosis) / number of mice with Szapiel grade I (mild alveolitis or fibrosis) / number of mice with Szapiel grade II (medium alveolitis or fibrosis) / number of mice with Szapiel grade III (severe alveolitis or fibrosis): n=12
Method: 1) Modeling experiment grouping: Three groups were classified, a saline group (group A), a low BLM dose group (group B 4 mg/mL), a high BLM dose group (group C 8 mg/Ml), there were 12 mice in each group. The 12 mice in each group were divided into two groups, with 6 mice in each group and the two groups of mice were respectively put into 20×20×20 cm transparent glass containers with corresponding marks, then saline and BLM was sprayed respectively into the containers with medical ultrasonic nebulizers.
2) Model administration process: Each time the spray volume was 1 ml, then a glass cover was closed for 15 minutes and the mice were put back into cages to rest for 5 minutes, and the procedure was repeated 6 times.
The mice were killed respectively after 3 days, 7 days, 14 days and 21 days of feeding, and the lungs of the mice were taken out to see changes in appearance, color and the lung surface; after the lungs were taken out, broncho-alveolar lavage was done first, and then parts of the lung tissue were sliced into paraffin sections and histological examination was done on HE stain; RT-PCR was done on another parts of lung tissue to examine RNA level. Judged from histological analysis, RNA level, protein level and changes in amounts of inflammatory cells, a decision was made to see whether the model of pulmonary fibrosis is usable. The table below is the grading standards made by method of Szapiel to evaluate grading standard of seriousness of the pathological changes in the lung tissue.
There are 4 grades in Szapiel's pathological changes in lung tissue: “0” is grade 1; “I” is grade 2; “II” is grade 3; and “III” is grade 4. The higher the grade, the severer the degree of fibrosis is.

[3] = tested on: myocardial tissue of mice (myocardial fibrosis model); assay: Establishment of Dox mice myocardial fibrosis models, histological grading;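 further: mice given Dox by injection twice weekly, hearts fixed in paraformaldehyde and scored histologically, with sampling on days 35, 42 and 49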
Method: 100 female Kunming mice weighed 18-22 g were picked and divided into 5 groups: saline group, model group 1 (Dox 1 mg/kg), model group 2 (Dox 2 mg/kg), model group 3 (Dox 3 mg/kg) model group 4 (Dox 4 mg/kg), the number of mice in each group were 15, 15, 25, 30 and 15. Twice a week, every mouse was injected 2000 every time, in which 1 mg/kg Dox, 2 mg/kg Dox, 3 mg/kg Dox or 4 mg/kg Dox was dissolved.
The activities of the mice were closely watched and deaths of the mice were recorded every day at 5:00 pm and 9:00 am. Three days, the 35th the 42nd and the 49th day were chosen to take samples. After deaths, hearts of the mice were taken and rinsed with cold PBS and placed on a clean dry filter paper, then they were put into paraformaldehyde solution to be fixed. The models to assess myocardial fibrosis were established according to histological analysis, the changes in ventricular cavity of the mice, perivascular fibrosis, interstitial fibrosis, and vacuole formation and other changes were taken into consideration to determine whether the model was useable.

[4] = High BLM group, 8 mg/mL atomization
[5] = Low BLM group, 4 mg/mL atomization
[6] = Dox accumulated dose 30, 10 mice
[7] = Dox accumulated dose 36, 10 mice
[8] = Dox accumulated dose 42 (3 mg/kg twice a week for 7 weeks), 9 mice

N.N.[Cl][Pt][Cl] [cisplatin]
survival rate ([1]; CDDP 5 mg/kg intraperitoneal, 5 consecutive days, 28th day): 90%
survival rate ([1]; CDDP 7 mg/kg intraperitoneal, 5 consecutive days, 7th day): 60%
mice survived ([1]; CDDP 7 mg/kg intraperitoneal, 5 consecutive days, 28th day): 30%
effect on weight of mice ([1]; cisplatin 5 mg/kg doses): weight loss

bleomycin [BLM]
number of mice with Szapiel grade 0 (no alveolitis or fibrosis) [2, 4]: 0
number of mice with Szapiel grade I (mild alveolitis or fibrosis) [2, 4]: 1
number of mice with Szapiel grade II (medium alveolitis or fibrosis) [2, 4]: 2
number of mice with Szapiel grade III (severe alveolitis or fibrosis) [2, 4]: 9
number of mice with Szapiel grade 0 (no alveolitis or fibrosis) [2, 5]: 0
number of mice with Szapiel grade I (mild alveolitis or fibrosis) [2, 5]: 3
number of mice with Szapiel grade II (medium alveolitis or fibrosis) [2, 5]: 8
number of mice with Szapiel grade III (severe alveolitis or fibrosis) [2, 5]: 1
deaths of mice ([2]; high BLM dose group, 8 mg/mL): most of them died of respiratory failures
lung sections of the mice showing severe fibrosis ([2]; high BLM dose group, 8 mg/mL): 75%
lung sections of the mice showing medium fibrosis ([2]; low BLM dose group, 4 mg/mL): 66%

COc1cccc2c1C(=O)c1c(O)c3c(c(O)c1C2=O)C[C@@](O)(C(=O)CO)C[C@@H]3O[C@H]1C[C@H](N)[C@H](O)[C@H](C)O1 [Doxorubicin]
Interstitial Fibrosis grade 0, number of mice [3, 6]: 9
Interstitial Fibrosis grade +++, number of mice [3, 6]: 0
Interstitial Fibrosis grade ++, number of mice [3, 6]: 0
Interstitial Fibrosis grade +, number of mice [3, 6]: 1
Number of deaths [3, 6]: 0
Perivascular Fibrosis grade 0, number of mice [3, 6]: 7
Perivascular Fibrosis grade +++, number of mice [3, 6]: 0
Perivascular Fibrosis grade ++, number of mice [3, 6]: 0
Perivascular Fibrosis grade +, number of mice [3, 6]: 3
Vacuolization grade 0, number of mice [3, 6]: 10
Vacuolization grade +++, number of mice [3, 6]: 0
Vacuolization grade ++, number of mice [3, 6]: 0
Vacuolization grade +, number of mice [3, 6]: 0
Interstitial Fibrosis grade 0, number of mice [3, 7]: 10
Interstitial Fibrosis grade +++, number of mice [3, 7]: 0
Interstitial Fibrosis grade ++, number of mice [3, 7]: 0
Interstitial Fibrosis grade +, number of mice [3, 7]: 0
Number of deaths [3, 7]: 0
Perivascular Fibrosis grade 0, number of mice [3, 7]: 7
Perivascular Fibrosis grade +++, number of mice [3, 7]: 0
Perivascular Fibrosis grade ++, number of mice [3, 7]: 1
Perivascular Fibrosis grade +, number of mice [3, 7]: 2
Vacuolization grade 0, number of mice [3, 7]: 9
Vacuolization grade +++, number of mice [3, 7]: 0
Vacuolization grade ++, number of mice [3, 7]: 0
Vacuolization grade +, number of mice [3, 7]: 1
Interstitial Fibrosis grade 0, number of mice [3, 8]: 5
Interstitial Fibrosis grade +++, number of mice [3, 8]: 1
Interstitial Fibrosis grade ++, number of mice [3, 8]: 2
Interstitial Fibrosis grade +, number of mice [3, 8]: 1
Number of deaths [3, 8]: 0
Perivascular Fibrosis grade 0, number of mice [3, 8]: 4
Perivascular Fibrosis grade +++, number of mice [3, 8]: 1
Perivascular Fibrosis grade ++, number of mice [3, 8]: 2
Perivascular Fibrosis grade +, number of mice [3, 8]: 2
Vacuolization grade 0, number of mice [3, 8]: 4
Vacuolization grade +++, number of mice [3, 8]: 1
Vacuolization grade ++, number of mice [3, 8]: 2
Vacuolization grade +, number of mice [3, 8]: 2
